These results are taken from patent publication US8426151B2, “Systems and methods for the detection of biomarkers” (Companion Diagnostics Inc., priority 2010, dated 2013).

Where “and” joins values, the source holds several entries; their conditions need not be identical. Equal entries are not always repeated.

In experiment [1] the test system is peroxidase. As to the kind of experiment: Peroxidase assay in saliva (Amplex Red). It counts as biochemical. As to conditions: 500 ppm, 30 minutes, FIGS. 26-29. Here is the method: To determine the effect of various GRAS compounds as inhibitors of peroxidase activity, a standard assay using Amplex® Red (Life Technologies), which releases a fluorescent oxidation product.
The test compounds, such as GRAS materials or cocktails of same, were prepared at a concentration of 500 ppm in distilled water. For the assay, 50 μl samples of test compounds were mixed with 20-30 μl of saliva (either “pooled” or “unpooled”) prior to the addition of Amplex® Red. Following the mixture of the test compounds with saliva, 50 μl of Amplex® Red/HRP working solution (See Protocol for Invitrogen Assay #A22188, which is incorporated herein in its entirety), which has a concentration of 100 μM of Amplex® Red, is added to the test compound/saliva mixture. […] Reactions were allowed to run for 30 minutes during these assays.

Experiment [2] addresses T1, α-amylase (Homo sapiens, UniProt P0DUB6).
T1 sequence (P0DUB6 16-511): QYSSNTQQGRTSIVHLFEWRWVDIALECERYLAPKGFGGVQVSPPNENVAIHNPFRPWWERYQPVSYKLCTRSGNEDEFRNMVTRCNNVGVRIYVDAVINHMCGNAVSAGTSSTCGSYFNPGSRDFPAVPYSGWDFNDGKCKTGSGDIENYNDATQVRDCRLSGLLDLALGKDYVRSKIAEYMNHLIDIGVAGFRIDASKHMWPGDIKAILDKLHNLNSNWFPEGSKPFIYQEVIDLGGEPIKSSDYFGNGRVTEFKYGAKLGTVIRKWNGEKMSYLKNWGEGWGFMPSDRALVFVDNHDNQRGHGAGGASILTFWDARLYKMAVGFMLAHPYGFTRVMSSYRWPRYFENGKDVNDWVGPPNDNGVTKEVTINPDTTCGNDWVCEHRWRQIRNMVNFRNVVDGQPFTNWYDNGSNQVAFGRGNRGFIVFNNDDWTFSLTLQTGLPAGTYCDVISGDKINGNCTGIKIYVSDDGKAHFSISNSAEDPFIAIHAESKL
The experiment is described as follows: α-Amylase inhibition saliva screening (2-chloro-p-nitrophenol-maltotriose substrate, 405 nm). As to conditions: for absorbance at 405 nm, single readings: 37° C., beside 100% Saliva Control; for Ave: mean of four readings at 405 nm. Format: biochemical.
Text: Enzymatic activity of α-amylase on the substrate yields 2-chloro-p-nitrophenol, which can be measured spectrophotometrically at 405 nm. The amount of α-amylase activity present in the experimental sample is directly proportional to the increase in absorbance at 405 nm.

With `COc1ccc(O)c(C(C)(C)C)c1` [CDI-039, 3-tert--butyl-hydroxyanisole], in experiment [1], the peroxidase inhibition result is reported as “significant peroxidase inhibition capabilities”.
In the case of Aluminum sulfate hydrate [CDI-34], the “absorbance at 405 nm, single readings” value is 0.40 and 0.36 and 0.45 in experiment [2] (0 min, sulfate hydrate); 0.49 and 0.50 and 0.52 in experiment [2] (5 min, sulfate hydrate); 0.53 and 0.61 and 0.54 and 0.56 in experiment [2] (15 min, sulfate hydrate). In addition, the figures for the Ave in experiment [2] (0 min), in experiment [2] (5 min) and in experiment [2] (15 min) were 0.40, 0.50 and 0.56, respectively.
On to “Aluminum potassium sulfate dodecahydrate [CDI-42]”, for which the “absorbance at 405 nm, single readings” value in experiment [2] (0 min) was 0.80 and 0.90 and 0.84; in experiment [2] (5 min), 1.80. The results for the Ave in experiment [2] (0 min), in experiment [2] (5 min) and in experiment [2] (15 min) were 0.92, 1.85 and 2.29, respectively. Also, the peroxidase inhibition result in experiment [1] is “significant peroxidase inhibition capabilities”.
In the case of `Cn1c(=O)c2c(ncn2C)n(C)c1=O` [CDI #33, Caffeine], the peroxidase inhibition result in experiment [1] is “significant peroxidase inhibition capabilities”.
